In patent US20160038454A1, “INTRAVENOUS FORMULATIONS OF […] AS IMMUNOMODULATORS AND […] AGENTS” (priority 2013, published 2016):
Values after ≈ are worked out from the molar mass of the structure shown.

Legend:
[1] = test system: MV4-11 cells; test: Synergy with AML drugs in vitro; assay type: cell-based; details: MV4-11 cells in vitro
Source text: Another consequence of XPB binding is the inhibition of nucleotide excision repair.

[2] = PG796(MRx102) purity (peak area %) / stability in emulsions; assay type: physicochemical
Experimental: (§1) Pharmaceutical emulsions are typically prepared at neutral to slightly alkaline pH since they are stabilized by electrostatic repulsion between droplets imparted by pH-sensitive anionic surfactants, such as phosphatidyl ethanolamine, free fatty acid salts, and cholate. However, it was possible that this pH range could be suboptimal for the chemical stability of PG796(MRx102). To test this, emulsions were prepared at different pH values ranging from 4 to 8. Buffers were included to control the pH, and the non-pH sensitive surfactant, sodium dodecyl sulfate was used in place of sodium cholate to assure a negative charge even in the low pH emulsions. All of the formulations were reasonably stable for up to 2 weeks at room temperature. […]

[3] = PG796(MRx102) solubility in emulsion formulations; assay type: physicochemical; details: emulsion formulation, aqueous with cosolvent or surfactant or cyclodextrin
Experimental: Various ratios of the nonionic surfactants polysorbate 80 (a.k.a. Tween 80) and Span 80 were explored, and a formulation was prepared and tested as follows. […] The results of this preliminary experiment were encouraging in that a reasonably high solubility was obtained in a formulation containing almost 70% water.
Emulsion formulations were prepared using a probe sonicator to disperse the oil phase in the aqueous phase to form a creamy opaque suspension.
Typical emulsion formulations consist of 10-30% triglyceride, most commonly SBO, dispersed with 0.5-2% phospholipids in an aqueous phase, which contains glycerin as a tonicity agent. […] Additionally, PEG-400 and ethanol were incorporated into some of the formulations to decrease the polarity of the aqueous phase to enhance solubility. Sodium cholate was included in some formulations as a co-surfactant. Solubility of at least 1 mg/mL was obtained in all of the formulations. In each case some loss of potency was observed after eight days of storage, but the majority of the original potency was maintained.
as §1

[4] = emulsion target pH 4.0 (acetate)
[5] = emulsion target pH 5.0 (acetate)
[6] = emulsion target pH 6.0 (histidine)
[7] = emulsion target pH 7.0 (phosphate)

**Q.** What does the source list for `CC(C)[C@]12O[C@H]1[C@@H]1O[C@]13[C@]1(O[C@H]1C[C@H]1c4c(C(=O)c5ccccc5)oc(OC(=O)c5ccccc5)c4CC[C@@]13C)[C@@H]2O` [PG796, 18-deoxo-19-dehydro-18-benzoyloxy-19-benzoyl triptolide]?
**A.** synergy with cytarabine [1]: synergy was demonstrated; synergy with idarubicin [1]: synergy was demonstrated; PG796 (MRx102) Purity ([2]; emulsion target pH 4.0 (acetate), 0 hr): 98.9 peak area %; PG796 (MRx102) Purity ([2]; emulsion target pH 4.0 (acetate), 1 wk): 98.9 peak area %; PG796 (MRx102) Purity ([2]; emulsion target pH 4.0 (acetate), 2 wk): 97.2 peak area %; PG796 (MRx102) Purity ([2]; emulsion target pH 4.0 (acetate), 24 hr): 99.3 peak area %; PG796 (MRx102) Purity ([2]; emulsion target pH 5.0 (acetate), 0 hr): 99.2 peak area %; PG796 (MRx102) Purity ([2]; emulsion target pH 5.0 (acetate), 1 wk): 99.1 peak area %; PG796 (MRx102) Purity ([2]; emulsion target pH 5.0 (acetate), 2 wk): 98.3 peak area %; PG796 (MRx102) Purity ([2]; emulsion target pH 5.0 (acetate), 24 hr): 99.4 peak area %; PG796 (MRx102) Purity ([2]; emulsion target pH 6.0 (histidine), 0 hr): 99.2 peak area %; PG796 (MRx102) Purity ([2]; emulsion target pH 6.0 (histidine), 1 wk): 98.9 peak area %; PG796 (MRx102) Purity ([2]; emulsion target pH 6.0 (histidine), 2 wk): 98.8 peak area %; PG796 (MRx102) Purity ([2]; emulsion target pH 6.0 (histidine), 24 hr): 99.2 peak area %; PG796 (MRx102) Purity ([2]; emulsion target pH 7.0 (phosphate), 0 hr): 99.4 peak area %; PG796 (MRx102) Purity ([2]; emulsion target pH 7.0 (phosphate), 1 wk): 98.8 peak area %; PG796 (MRx102) Purity ([2]; emulsion target pH 7.0 (phosphate), 2 wk): 91.0 peak area %; PG796 (MRx102) Purity ([2]; emulsion target pH 7.0 (phosphate), 24 hr): 99.1 peak area %; PG796 (MRx102) Purity ([2]; emulsion target pH 8.0 (Tris), 0 hr): 98.7 peak area %; PG796 (MRx102) Purity ([2]; emulsion target pH 8.0 (Tris), 1 wk): 99.1 peak area %; PG796 (MRx102) Purity ([2]; emulsion target pH 8.0 (Tris), 2 wk): 98.3 peak area %; PG796 (MRx102) Purity ([2]; emulsion target pH 8.0 (Tris), 24 hr): 99.2 peak area %; pH dependence of stability of PG796(MRx102) in the emulsion ([2]; pH 4 to 8): not pH-dependent; solubility at 0 hr [3, 4]: 0.87 mg/mL (≈ 1530 µM); solubility at 1 wk [3, 4]: 1 mg/mL (≈ 1760 µM); solubility at 2 wk [3, 4]: 0.848 mg/mL (≈ 1490 µM); solubility at 24 hr [3, 4]: 0.917 mg/mL (≈ 1610 µM); solubility at 0 hr [3, 5]: 1.01 mg/mL (≈ 1770 µM); solubility at 1 wk [3, 5]: 0.972 mg/mL (≈ 1710 µM); solubility at 2 wk [3, 5]: 0.91 mg/mL (≈ 1600 µM); solubility at 24 hr [3, 5]: 0.922 mg/mL (≈ 1620 µM); solubility at 0 hr [3, 6]: 1.09 mg/mL (≈ 1920 µM); solubility at 1 wk [3, 6]: 0.948 mg/mL (≈ 1670 µM); solubility at 2 wk [3, 6]: 0.85 mg/mL (≈ 1490 µM); solubility at 24 hr [3, 6]: 0.89 mg/mL (≈ 1570 µM); solubility at 0 hr [3, 7]: 0.996 mg/mL (≈ 1750 µM); solubility at 1 wk [3, 7]: 0.76 mg/mL (≈ 1340 µM); solubility at 2 wk [3, 7]: 0.822 mg/mL (≈ 1450 µM); solubility at 24 hr [3, 7]: 0.849 mg/mL (≈ 1490 µM); solubility at 0 hr ([3]; emulsion target pH 8.0 (Tris)): 0.929 mg/mL (≈ 1630 µM); solubility at 1 wk ([3]; emulsion target pH 8.0 (Tris)): 1.04 mg/mL (≈ 1830 µM); solubility at 2 wk ([3]; emulsion target pH 8.0 (Tris)): 0.93 mg/mL (≈ 1640 µM); solubility at 24 hr ([3]; emulsion target pH 8.0 (Tris)): 0.929 mg/mL (≈ 1630 µM); solubility ([3]; preliminary emulsion: 29.4% GTO, 1.65% Span 80, 0.31% Tween 80, 68.6% water): 0.681 mg/mL (≈ 1200 µM)
